# Measured values published in US11873298B2, “Compounds and uses thereof” (JANSSEN PHARMACEUTICA NV, priority 2017, dated 2024).
# Columns and labels:
# SCD1 = biological target: T1, SCD1 (Homo sapiens, UniProt O00767); assay: Growth inhibition of humanized yeast strain expressing SCD1 as sole desaturase; assay type: cell-based
# T1 construct: host or cells: S. cerevisiae ole1Δ strain (W303 pdr1Δ pdr3Δ background), plasmid pRS316 with TDH3 promoter and CYC1 terminator
# T1 sequence (O00767 1-359): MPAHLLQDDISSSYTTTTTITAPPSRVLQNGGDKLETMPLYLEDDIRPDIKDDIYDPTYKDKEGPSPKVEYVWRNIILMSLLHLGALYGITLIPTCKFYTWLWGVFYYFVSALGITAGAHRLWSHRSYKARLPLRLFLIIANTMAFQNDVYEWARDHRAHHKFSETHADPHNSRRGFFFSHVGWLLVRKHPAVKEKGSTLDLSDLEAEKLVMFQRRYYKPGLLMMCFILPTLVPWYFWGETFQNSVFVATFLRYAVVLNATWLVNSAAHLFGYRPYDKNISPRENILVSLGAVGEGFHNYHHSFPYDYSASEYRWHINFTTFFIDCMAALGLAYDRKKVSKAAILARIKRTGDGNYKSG
# Experimental: Strain oleΔ (yeast ole1 deletion mutant) was constructed by deleting OLE1 with NAT-MX6 in BY4741, amplifying the deletion cassette from the genomic DNA of the resulting strain with primers flanking the ORF by 1000 bp upstream and downstream, transforming the resulting deletion cassette into W303 pdr1Δ pdr3Δ, and plating transformants on YPD media containing G418 (200 μg/mL) and nourseothricin ([…]) with 0.01% TWEEN®-20 and 0.5 mM oleic and palmitoleic acids.
# The coding sequence of yeast OLE1 was also cloned into this plasmid). These clones were then transformed into the ole1Δ strain and plated on CSM-Ura media (CSM lacking uracil) with 2% glucose (w/v) and independent colonies were isolated and amplified.
# All compound profiling experiments were performed using the same basic protocol. Different genetic backgrounds (e.g., gene deletions) or conditions (e.g., addition of oleic and palmitoleic acid) were replaced as indicated below.
# Yeast were cultured using standard techniques in complete synthetic media (CSM) and yeast nitrogen base supplemented with 2% (w/v) carbon source (glucose, raffinose, or galactose) to regulate the expression of the toxic disease protein. An initial starter culture was inoculated in 3 mL CSM-Glucose media and incubated overnight in a 30° C. shaker incubator (225 rpm). Saturated morning cultures were then diluted 1:20 in fresh CSM-Raffinose media and grown for 6 h to an OD600 (optical density) of ˜0.4-0.8 at 30° C. with shaking.
# Compound administration was performed in two separate steps. First, 15 μL of CSM-Galactose (induces expression of toxic protein) was dispensed into clear 384 well assay plates using a MULTIDROP™ Combi reagent dispenser. […] The cultures described above were then diluted to a 2× concentration (0.03 and 0.08 for alpha-synuclein and ApoE, final ODsoo of 0.015 and 0.04) in CSM-Galactose. For wild-type and Ole1/SCD1/SCD5 plasmid-containing strains, the 2× cell density was 0.02. […] For 96-well assays (FIGS. 1A and 1B), compound dilutions in DMSO were generated in 96 well plates and 1 μL was manually pipetted into 96 well clear bottom assay plates.
# For experiments using a plasmid-borne copy of Ole1, SCD1, or SCD5 (FIGS. 3B, 6, and 7), media lacking uracil (SX-Ura, where X is glucose, raffinose, or galactose), was used for all steps of the compound profiling protocol to ensure its maintenance throughout the assay.
# After yeast delivery, assay plates were incubated under humidified conditions at 30° C. for 24 to 40 h. ApoE4 rescue experiments were stopped at 24 h, aSyn experiments at 40 h, Ole1 at 24 h, and SCD1/SCD5 at 40 h. The growth of yeast was monitored by reading the ODsoo of each well using a microplate reader (Perkin Elmer EnVision™).
# SCD5 = biological target: T2, SCD5 (Homo sapiens, UniProt Q86SK9); assay: Growth inhibition of humanized yeast strain expressing SCD5 as sole desaturase; assay type: cell-based
# T2 construct: host or cells: S. cerevisiae ole1Δ strain (W303 pdr1Δ pdr3Δ background), plasmid pRS316 with TDH3 promoter and CYC1 terminator
# T2 sequence (Q86SK9 1-330): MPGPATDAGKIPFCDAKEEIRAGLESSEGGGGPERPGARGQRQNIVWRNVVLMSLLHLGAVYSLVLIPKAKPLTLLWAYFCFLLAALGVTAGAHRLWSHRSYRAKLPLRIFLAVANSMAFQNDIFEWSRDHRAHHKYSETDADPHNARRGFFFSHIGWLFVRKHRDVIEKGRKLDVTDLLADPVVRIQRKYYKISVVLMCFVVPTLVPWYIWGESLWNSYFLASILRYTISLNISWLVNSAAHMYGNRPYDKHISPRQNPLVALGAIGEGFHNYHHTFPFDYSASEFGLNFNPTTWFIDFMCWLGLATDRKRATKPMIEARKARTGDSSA
# Summary of the method: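 Measured by optical density at 600 nm, growth of desaturase-dependent yeast (OLE1 deleted; human SCD1, human SCD5 or yeast Ole1 supplied from plasmid) was scored after 24 h (Ole1) or 40 h (SCD1, SCD5) at 30° C. in galactose media lacking uracil with DMSO-delivered compound.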
# [1] = growth inhibition of humanized yeast strain expressing human SCD1
# [2] = growth inhibition of humanized yeast strain expressing human SCD5
# [3] = humanized yeast strain expressing SCD1
# [4] = humanized yeast strain expressing SCD5
compound,measurement,setting,value
CC1(OC(=O)N2CC(c3nc(-c4ccc5cnn(C6COC6)c5c4)no3)C2)CC1 [Compound 724],IC50,SCD1; [1],> 45 µM
same,IC50,SCD5; [2],1.25 µM
CCOCC1CCN(c2nc(-c3ccc4cnn(C(C)C)c4c3)no2)CC1 [Compound 614],IC50,SCD1; [1],> 45 µM
same,IC50,SCD5; [2],13.9 µM
CC(C)(C)OC(=O)N1CCC(c2noc(-c3ccc4oc(=O)[nH]c4c3)n2)CC1 [Compound 1009],IC50,"SCD1; humanized yeast strain, 40 h",> 45 µM
same,IC50,"SCD5; humanized yeast strain, 40 h",9.51 µM
CC(C)n1ncc2ccc(-c3noc(N4CCN(C(=O)CC5CC5)CC4)n3)cc21 [Compound 869],IC50,"SCD1; humanized yeast strain, 40 h",> 45 µM
same,IC50,"SCD5; humanized yeast strain, 40 h",1.64 µM
CC(C)(C)OC(=O)N1CCC(c2nc(-c3ccc4c(Br)ncn4c3)no2)CC1 [Compound 872],IC50,"SCD1; humanized yeast strain, 40 h",> 45 µM
same,IC50,"SCD5; humanized yeast strain, 40 h",8.06 µM
CC(C)n1ncc2ccc(-c3noc(N4CCN(C(=O)OC5CC5)CC4)n3)cc21 [Compound 689],IC50,SCD1; [1],> 45 µM
same,IC50,SCD5; [2],0.657 µM
CO[C@H]1C[C@@H](n2ncc3ccc(-c4noc(C5CCN(C(=O)OC(C)(C)C)CC5)n4)cc32)C1 [Compound 867],IC50,"SCD1; humanized yeast strain, 40 h",> 45 µM
same,IC50,"SCD5; humanized yeast strain, 40 h",1.92 µM
CC(C)(C)OC(=O)N1CCC(c2noc(-c3ccc4cnc(C5COC5)n4c3)n2)CC1 [Compound 909],IC50,"SCD1; humanized yeast strain, 40 h",> 45 µM
same,IC50,"SCD5; humanized yeast strain, 40 h",2.85 µM
O=C(c1nccs1)N1CCN(c2nc(-c3ccc4cnn(C5COC5)c4c3)no2)CC1 [Compound 740],IC50,SCD1; [1],> 45 µM
same,IC50,SCD5; [2],1.43 µM
CC(C)(C)OC(=O)N1CCC(c2nc(N3CC4(COC4)C3)no2)CC1 [Compound 806],IC50,"SCD1; humanized yeast strain, 40 h",> 45 µM
same,IC50,"SCD5; humanized yeast strain, 40 h",> 45 µM
CC(C)(C)CCC(=O)N1CC(c2nc(-c3ccc4cnn(C5COC5)c4c3)no2)C1 [Compound 749],IC50,"SCD1; humanized yeast strain, 40 h",> 45 µM
same,IC50,"SCD5; humanized yeast strain, 40 h",20.8 µM
COC1(c2nc(-c3ccc4cnn(C(C)C)c4c3)no2)CCN(C(=O)OC(C)(C)C)CC1 [Compound 836],IC50,"SCD1; humanized yeast strain, 40 h",> 45 µM
same,IC50,"SCD5; humanized yeast strain, 40 h",1.44 µM
CC(C)(C)OC(=O)N1CCC(c2noc(-c3ccc4cnn([C@@H]5CCOC5)c4c3)n2)CC1 [Compound 1092],IC50,"SCD1; humanized yeast strain, 40 h",32.3 µM
same,IC50,"SCD5; humanized yeast strain, 40 h",0.01 µM
CC(C)n1ncc2ccc(-c3noc(C4CCN(C(=O)CNC(=O)C5CC5)CC4(F)F)n3)cc21 (stereo not shown) [Compound 579],IC50,SCD1; [3],> 45 µM
same,IC50,SCD5; [4],> 45 µM
O=C1CC(n2ncc3ccc(-c4nc(N5CCn6c(Cl)cnc6C5)no4)cc32)C1 [Compound 953],IC50,"SCD1; humanized yeast strain, 40 h",> 45 µM
same,IC50,"SCD5; humanized yeast strain, 40 h",0.01 µM
O=C(C1CCC1)N1CCC(c2noc(-c3ccnc(N4CCOCC4)c3)n2)CC1 [Compound 1105],IC50,"SCD1; humanized yeast strain, 40 h",> 45 µM
same,IC50,"SCD5; humanized yeast strain, 40 h",0.549 µM
CC1(C(=O)N2CCN(c3nc(-c4ccc5cnn(C6COC6)c5c4)no3)CC2)CCCO1 (stereo not shown) [Compound 916],IC50,"SCD1; humanized yeast strain, 40 h",1.96 µM
same,IC50,"SCD5; humanized yeast strain, 40 h",0.01 µM
CC(C)n1ncc2c1CN(c1noc(C3CCN(C(=O)OC(C)(C)C)CC3)n1)CC2 [Compound 893],IC50,"SCD1; humanized yeast strain, 40 h",> 45 µM
same,IC50,"SCD5; humanized yeast strain, 40 h",0.01 µM
COC(=O)N1CCC(c2noc(-c3ccnc(OC4COC4)c3)n2)CC1 [Compound 1064],IC50,"SCD1; humanized yeast strain, 40 h",> 45 µM
same,IC50,"SCD5; humanized yeast strain, 40 h",3.44 µM
C[C@@H]1C[C@H](c2noc(-c3ccc4cnn(C5COC5)c4c3)n2)CCN1C(=O)OC(C)(C)C [Compound 1017],IC50,"SCD1; humanized yeast strain, 40 h",17.1 µM
same,IC50,"SCD5; humanized yeast strain, 40 h",0.01 µM
c1cc2cnn(C3COC3)c2cc1-c1nc(C2CCNCC2)no1 [Compound 752],IC50,"SCD1; humanized yeast strain, 40 h",> 45 µM
same,IC50,"SCD5; humanized yeast strain, 40 h",> 45 µM
CC(C)(C)OC(=O)N1CCC(c2noc(-c3cccc(C4CCCO4)c3)n2)CC1 (stereo not shown) [Compound 812],IC50,"SCD1; humanized yeast strain, 40 h",> 45 µM
same,IC50,"SCD5; humanized yeast strain, 40 h",0.01 µM
O=C(CC1CC1)N1CCC(c2noc(-c3ccc4cnn(C5COC5)c4c3)n2)CC1 [Compound 894],IC50,"SCD1; humanized yeast strain, 40 h",> 45 µM
same,IC50,"SCD5; humanized yeast strain, 40 h",0.07 µM
O=C(OC1CC1)N1CCC(c2noc(-c3ccnc(C4CCOC4)c3)n2)CC1 (stereo not shown) [Compound 1098],IC50,"SCD1; humanized yeast strain, 40 h",> 45 µM
same,IC50,"SCD5; humanized yeast strain, 40 h",0.062 µM
CC(C)n1ncc2ccc(-c3nc(C4CCN(C(=O)c5sccc5Cl)CC4)no3)cc21 [Compound 715],IC50,SCD1; [1],> 45 µM
same,IC50,SCD5; [2],0.048 µM
CC(C)(C)OC(=O)N1CCC(c2noc(-c3cccc(C4CCO4)c3)n2)CC1 (stereo not shown) [Compound 1152],IC50,"SCD1; humanized yeast strain, 40 h",> 45 µM
same,IC50,"SCD5; humanized yeast strain, 40 h",0.01 µM
O=C(CC1CC1)N1CCN(c2nc(-c3ccc4cnn(C5COC5)c4c3)no2)CC1 [Compound 659],IC50,SCD1; [1],> 45 µM
same,IC50,SCD5; [2],4.2 µM
COCC(COC)n1ncc2ccc(-c3nc(C4CCN(C(=O)OC)CC4)no3)cc21 [Compound 840],IC50,"SCD1; humanized yeast strain, 40 h",> 45 µM
same,IC50,"SCD5; humanized yeast strain, 40 h",20.7 µM
CC(C)(C)OC(=O)N1CCC(c2nc(-c3cccc(C4CCOC4)c3)no2)CC1 (stereo not shown) [Compound 658],IC50,SCD1; [1],> 45 µM
same,IC50,SCD5; [2],0.089 µM
CC(C)n1ncc2ccc(-c3noc(C4CCN(C(=O)CNC(=O)c5ccc(F)cc5)CC4(F)F)n3)cc21 (stereo not shown) [Compound 520],IC50,SCD1; [3],> 45 µM
same,IC50,SCD5; [4],> 45 µM
COC(=O)N1CCC(c2noc(-c3ccc4cnn([C@H]5CCOC5)c4c3)n2)CC1 [Compound 879],IC50,"SCD1; humanized yeast strain, 40 h",5.5 µM
same,IC50,"SCD5; humanized yeast strain, 40 h",0.01 µM
CC(C)(C)OC(=O)N1CCC(c2noc(-c3cccc(N4CCOCC4)c3F)n2)CC1 [Compound 1154],IC50,"SCD1; humanized yeast strain, 40 h",> 45 µM
same,IC50,"SCD5; humanized yeast strain, 40 h",0.0157 µM
CC(C)(C)OC(=O)N1CCC(c2noc(-c3cc(C4CCOC4)ccn3)n2)CC1 (stereo not shown) [Compound 1192],IC50,"SCD1; humanized yeast strain, 40 h",> 45 µM
same,IC50,"SCD5; humanized yeast strain, 40 h",0.04 µM
CC(C)n1ncc2ccc(-c3noc(N4CCN5C(=O)N(C)CC5C4)n3)cc21 (stereo not shown) [Compound 1108],IC50,"SCD1; humanized yeast strain, 40 h",> 45 µM
same,IC50,"SCD5; humanized yeast strain, 40 h",> 45 µM
CC(C)C(=O)N1CCC(c2noc(-c3ccc4oc(=O)n(C5COC5)c4c3)n2)CC1 [Compound 1126],IC50,"SCD1; humanized yeast strain, 40 h",> 45 µM
same,IC50,"SCD5; humanized yeast strain, 40 h",2.74 µM
COC(=O)N1CCC(c2nc(-c3ccnc(C(O)C(C)C)c3)no2)CC1 (stereo not shown) [Compound 856],IC50,"SCD1; humanized yeast strain, 40 h",> 45 µM
same,IC50,"SCD5; humanized yeast strain, 40 h",> 45 µM
CC(C)(C)OC(=O)N1CCC(c2nc(-c3ccc4cnc(C#N)n4c3)no2)CC1 [Compound 942],IC50,"SCD1; humanized yeast strain, 40 h",> 45 µM
same,IC50,"SCD5; humanized yeast strain, 40 h",9.16 µM
CC(C)(C)OC(=O)N1CCC(c2noc(-c3ccc(=O)n(C4COC4)c3)n2)CC1 [Compound 1113],IC50,"SCD1; humanized yeast strain, 40 h",> 45 µM
same,IC50,"SCD5; humanized yeast strain, 40 h",0.494 µM
